Measured values reported in patent publication US8569578B1, “Generating transgenic potatoes with novel resistance to potato cyst nematodes by silencing nematode parasitism genes of CLE -1 and CLE-4s” (The United States of America, as represented by the …, priority 2009, dated 2013).
“Also recorded” adds a separate entry of the source.

Experiments:
Type in all cases: in vivo
[1] = tested on: Arabidopsis (Columbia-0) roots; assay: in vitro root assay with synthetic CLE peptides on Arabidopsis roots; details: 10 μM peptide in assay medium, compared with no peptide or Ag-16p
From the text: (§1) Mounting evidence supports that the conserved CLE motif represents the major functional domain of plant CLE proteins. Gr-CLE genes encode four different 12-aa CLE motifs (FIG. 1A). To examine the functional sufficiency of these nematode CLE motifs, we conducted in vitro root assays (Fiers et al. 2005) using synthetic dodecapeptides (GrCLE1-1-12p, GrCLE4-1-12p, GrCLE4-2-12p, and GrCLE4-3-12p) corresponding to the four CLE motifs of Gr-CLE proteins. A 16-aa peptide (Ag-16p) (Fiers et al. 2005) corresponding to the C-terminus of AGAMOUS that has no similarity with plant CLE motifs and a 12-aa CLV3 peptide (CLV3-12p) were used as negative and positive controls, respectively. In addition, several peptides, including a mutated GrCLE1-1 dodecapeptide (GrCLE1-1m-12p, with a Gly-to-Ala conversion as in clv3-1 and clv3-5 mutants), a 14-aa GrCLE1-1 peptide (GrCLE1-1-14p, with one additional N-terminal and one additional C-terminal residue compared to Gr-CLE1-1-12p), and three 13-aa peptides of GrCLE4-1-13p, GrCLE4-2-13p, and GrCLE4-3-13p (all contained an extra N-terminal lysine residue compared to the corresponding dodecapeptides), were synthesized and used in the in vitro root assays.
(§2) Peptides with a purity of >70% were synthesized (Sigma-Aldrich Corp., St. Louis, Mo., U.S.A) and dissolved in filter-sterilized 50 mM sodium phosphate buffer. Three Gr-CLE-1 related peptides were synthesized: GrCLE1-1-12p (12 aa, RVIPGGPDPLHN; SEQ ID NO: 12), GrCLE1-1m-12p (12 aa, RVIPGAPDPLHN; SEQ ID NO: 13, with a G-to-A conversion at position 6), and GrCLE1-1-14p (14 aa, KRVIPGGPDPLHNR; SEQ ID NO: 14). Six Gr-CLE-4 related peptides were synthesized: GrCLE4-1-12p (12 aa, RVAGAGPDPIHH; SEQ ID NO: 15), GrCLE4-1-13p (13 aa, KRVAGAGPDPIHH; SEQ ID NO: 16), GrCLE4-2-12p (12 aa, RAVPAGPDPKHH; SEQ ID NO: 17), GrCLE4-2-13p (13 aa, KRAVPAGPDPKHH; SEQ ID NO: 18), GrCLE4-3-12p (12 aa, RGAPAGPDP IHH; SEQ ID NO: 19), and GrCLE4-3-13p (13 aa, KRGAPAGPDPIHH; SEQ ID NO: 20). Positive and negative control peptides included CLV3-12p (12 aa, RTVPSGPDPLHH; SEQ ID NO: 21) and Ag-16p (16 aa, APNNHHYSSAGRQDQT; SEQ ID NO: 22) (Fiers et al., 2005).
(§3) For peptide treatments, seeds of wild-type Arabidopsis (Columbia-0) and potato, nonhost and host of G. rostochiensis, respectively, were surface-sterilized and plated on square plates (8-12 seeds per plate) containing the assay medium (Fiers et al. 2005, supra) with 10 μM of each peptide. Assay plates were placed vertically in a growth chamber and cultured at 23° C. for 16 h of light and 8 h of dark. The root length was measured from the base of the hypocotyl to the tip of the primary root at several time points after plating. Two independent experiments were conducted.

potato roots = assay: in vitro root assay with synthetic CLE peptides on potato roots; details: 10 μM peptide in assay medium, compared with no peptide or Ag-16p
From the text: as §1, §2, §3

[2] = tested on: Arabidopsis (Columbia-0) root apical meristem; assay: microscopic examination of root apical meristem of peptide treated Arabidopsis roots; details: Arabidopsis primary roots 8 days after peptide treatment
From the text: To examine root meristems, primary root tips were excised from peptide treated Arabidopsis seedlings or from transgenic potato hairy roots and immediately mounted in water onto a glass slide. Roots were examined under an Olympus BX-50 microscope equipped with Nomarski optics and images were captured using a QImaging Retiga EXi digital CCD camera (QImaging, Surrey, BC, Canada). The root apical meristem (RAM) regions of individual primary roots that covered the distance from the position around the quiescent center to the position where elongated root cells immediately follow cytoplasm-dense meristematic cells were measured microscopically. The collected data were analyzed using the MetaMorph imaging analysis software (Universal Imaging Corporation, Downingtown, Pa., U.S.A.)

| Sequence | suppression of root growth (length of main root) [1] | suppression of root growth (length of main root) (potato roots) | root meristem consumption (size of root apical meristem) [2] | suppression of root growth (length of main root) ([1]; listed as GrCLE1-1) |
| --- | --- | --- | --- | --- |
| RTVPSGPDPLHH (listed as Globodera rostochiensis) [CLV3-12p, 12-aa CLV3 peptide, positive control, reference compound] | severely suppressed root growth | severely suppressed root growth | showed a phenotype of root meristem consumption |  |
| RVIPGGPDPLHN (listed as Globodera rostochiensis) [GrCLE1-1-12p, synthetic 12 aa dodecapeptide of the GrCLE1-1 CLE motif] | suppressed root growth; also recorded: comparable level of suppression as CLV3-12p; also recorded: significantly shorter | suppressed root growth; also recorded: comparable level of suppression as CLV3-12p; also recorded: significantly shorter | more severe; also recorded: significantly less | higher degree of root suppression |
